Structures can show the parent of a compound that is named as a salt. Where two headings read alike, the source gives them in different places.
How the values were obtained:
human P2X4 = target: T1, human P2X4 (Homo sapiens, UniProt Q99571); experiment: P2X4 receptor antagonistic action: ATP-induced intracellular calcium response (Fura-2AM) in P2X4 receptor-expressing 1321N1 cells; type: cell-based
T1 sequence (Q99571 1-388): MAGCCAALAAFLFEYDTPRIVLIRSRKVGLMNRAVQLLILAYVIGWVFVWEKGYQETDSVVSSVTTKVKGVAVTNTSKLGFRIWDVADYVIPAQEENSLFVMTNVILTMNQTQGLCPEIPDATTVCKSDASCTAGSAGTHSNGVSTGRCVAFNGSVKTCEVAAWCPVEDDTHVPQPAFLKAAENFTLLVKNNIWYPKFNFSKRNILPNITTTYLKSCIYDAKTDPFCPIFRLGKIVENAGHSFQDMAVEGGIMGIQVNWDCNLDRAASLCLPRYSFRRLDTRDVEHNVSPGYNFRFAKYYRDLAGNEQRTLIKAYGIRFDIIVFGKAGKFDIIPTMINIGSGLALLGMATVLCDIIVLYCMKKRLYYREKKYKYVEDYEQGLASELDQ
Experimental: An ATP receptor (human P2X4) was introduced in 1321N1 cells, which were then used as a system in which P2X4 receptor was expressed stably. The P2X4 receptor-expressing cells were seeded on a 96-well plate, were cultured for 24 h under conditions at 37° C. and 5% C02, and were then used for calcium measurement. Fura-2AM, which is a calcium fluorescence indicator, was dissolved in an extracellular solution for calcium imaging and applied to the seeded cells. Then, the cells were allowed to stand at room temperature for 45 min. In this way, the Fura-2AM was taken up in the cells. A micro plate reader EnVision (PerkinElmer) was used for the measurement. Light emitted from a xenon lamp was made to pass through a 340-nm or 380-nm filter, and F340 or F380, which is 510-nm fluorescence emitted when the cells were irradiated, were observed. Then, a change in the ratio value F340/F380 was an index for the intracellular calcium change. The measurement was carried out by adding ATP at the final concentration of 1 μM to each well and by recording, over time, the ATP-induced intracellular calcium response. The inhibitory activity of each test substance was measured by conducting 15-min pretreatment with each test substance before ATP application, and was calculated while compared to the case of the absence of the test substance.

[1] = tested on: citric acid-induced cough; conditions: cited from earlier work
[2] = tested on: citric acid (0.5 M)-induced cough; experiment: Citric acid-induced cough reflux in pretreatment guinea pigs, oral administration; type: in vivo, Hartly strain guinea pigs; conditions: for number of coughs, pre versus post administration: pretreatment guinea pigs
Text: Cough reflux is induced by inhalation of (in the case of mice, 0.1 M or 0.25 M and in the case of guinea pigs, 0.25 M or 0.5 M) citric acid by mice or guinea pigs under non-anesthesia conditions. The citric acid is made aerosol by using an ultrasonic nebulizer (NE-U17: OMRON Corporation), and is inhaled while the air is supplied with an artificial respirator (SN-480-7: Shinano Seisakusho). The citric acid aerosol has an average particle size of from 1 to 8 μm, and the artificial respirator is used to supply the air at a one-time ventilation volume of 6 mL, a frequency of 30 times per min, and an inhalation period of 3 min.
The respiration and the cough reflux are measured in accordance with the body-plethysmograph method. The plethysmograph used includes: a plastic-made, cylindrical cylinder part in which the trunk of each mouse or guinea pig is housed; and a cap part that covers the head portion (any plastic-made cylinder is allowed as long as each experimental animal can be put in; in the case of the mouse, for instance, the part with a diameter of 4 cm and a length of 7 cm was used). An exhaust hole is created at an upper cylinder portion so as to be able to connect, via a silicon tube, to a respiratory flow meter (TP-602T: NIHON KOHDEN CORPORATION). To tightly seal the inside of the cylinder, a rubber or celluloid collar is attached to the neck of each animal, and the cap covering the whole head is used to fix them. The head-attached cap part has an exhaust port and an inhalation port created for inhalation of a cough-inducing substance. In addition, a screw-type lid is attached to a tail portion of the cylinder so as to move in or out each experimental animal. Each mouse is put in the cylinder, allowed to play for at least 30 min, adapted to an experimental environment, and then subjected to the experiment. The respiration is recorded in a PC (IdeaPad 300: Lenovo) for measurement by measuring, as a change in volume of the cylinder, the chest movement of each experimental animal in the cylinder by using a PowerLab (ML826 PowerLab 2/26: AD Instruments) via a respiratory flow meter. When a cough is induced, the chest of the experimental animal is moved vigorously, which causes an instantaneous large volume change in the cylinder. This change is recorded using the respiratory flow meter. This frequency is recorded to measure the number of coughs. The data is analyzed by LabChart version 8 (ADInstruments). In addition, immediately before inhalation of citric acid, the respiratory frequency per 15 sec is measured.
In this way, the effects were investigated.
At that time, Hartly strain guinea pigs were used as the guinea pigs, and 0.5 M citric acid was used as the citric acid.
In this way, the effects were investigated. Here, 0.5 M citric acid was used as the pretreated citric acid.

[3] = tested on: citric acid (0.25 M)-induced cough; experiment: Citric acid-induced cough reflux in pretreatment mice, oral administration; type: in vivo, ICR strain mice; conditions: oral 10 mg/kg, 0.25 M citric acid 1 h after administration
[4] = Table 131 (Example 1), human P2X4-expressing 1321N1 cells, ATP 1 μM, Fura-2AM calcium response, read-out: IC50

5-[4-[(2-(3-fluorophenyl)ethyl)-1H-imidazol-1-yl]phenyl]-1H-naphtho[1,2-b][1,4]diazepin-2,4(3H,5H)-dione hydrochloride [Compound H31]
IC50 (human P2X4; Table 135 (Example 14), same protocol as Example 1, read-out: Inhibitory action IC50): 51 nM

Nc1ncnc2c1ncn2[C@@H]1O[C@H](COP(=O)(O)OP(=O)(O)OP(=O)(O)O)[C@@H](O)[C@H]1O [ATP, adenosine triphosphate]
effect of ATP on citric acid-induced cough ([1]; guinea pigs, Non Patent Literature 1): elicited a concentration-dependent and significant increase

O=C1CN=C(c2cccc(-c3nnn[nH]3)c2)c2ccc3ccccc3c2N1 [Compound A21, 5-[3-(1H-tetrazol-5-yl)phenyl]-1,3-dihydro-2H-naphtho[1,2-e][1,4]diazepin-2-one sodium salt]
IC50 (human P2X4): 910 nM

O=C1CC(=O)N(c2ccc(F)c(-c3nnn[nH]3)c2)c2ccc3ccccc3c2N1 [Compound A23, 5-[4-fluoro-3-(1H-tetrazol-5-yl)phenyl]-1H-naphtho[1,2-b][1,4]diazepin-2,4(3H,5H)-dione sodium salt]
IC50 (human P2X4; [4]): 490 nM

O=c1[nH]c2c3ccccc3ccc2n(-c2cccc(-c3nnn[nH]3)c2)c1=O [Compound C2, 4-[3-(1H-tetrazol-5-yl)phenyl]-1,4-dihydrobenzo[f]quinoxalin-2,3-dione sodium salt]
IC50 (human P2X4; [4]): 570 nM

O=c1nc(-c2cccc(-c3nnn[nH]3)c2)c2ccc3ccccc3c2[nH]1 [Compound D2, 4-[3-(1H-tetrazol-5-yl)phenyl]-1H-benzo[h]quinazolin-2-one sodium salt]
IC50 (human P2X4; [4]): 330 nM

O=C1CC(=O)N(c2ccc(-n3nnnc3Cc3ccccc3O)nc2)c2ccc3ccccc3c2N1 [Compound H11, 5-[6-[5-(2-hydroxybenzyl)-1H-tetrazol-1-yl]pyridin-3-yl]-1H-naphtho[1,2-b][1,4]diazepin-2,4(3H,5H)-dione]
IC50 (human P2X4; Table 134 (Example 14), same protocol as Example 1, read-out: Inhibitory action IC50): 77 nM

COc1c(F)cccc1CCc1nccn1-c1ccc(N2C(=O)CC(=O)Nc3c2ccc2ccccc32)cc1 [Compound H83, 5-[4-[(2-(3-fluoro-2-methoxyphenyl)ethyl)-1H-imidazol-1-yl]phenyl]-1H-naphtho[1,2-b][1,4]diazepin-2,4(3H,5H)-dione hydrochloride]
IC50 (human P2X4; read-out: Inhibitory action IC50): 87 nM

O=C1CC(=O)N(c2ccc(NC(=O)c3ccccc3C(F)(F)F)cc2)c2ccc3ccccc3c2N1 [compound C, 5-[4-[2-(trifluoromethyl)benzoyl]aminophenyl]-1H-naphtho[1,2-b][1,4]diazepin-2,4(3H,5H)-dione]
cough response increased due to airway inflammation ([2]; as stated in Example 15, oral 58.8 mg/kg): inhibited completely | number of coughs, pre versus post administration ([2]; oral 58.8 mg/kg 1 h before 0.5 M citric acid stimulation): significantly decreased

CN(C)c1ncccc1C(=O)Nc1ccc(C2=NCC(=O)Nc3c2ccc2ccccc32)cc1.Cl.Cl [compound D, 2-(dimethylamino)-N-[4-(2-oxo-2,3-dihydro-1H-naphtho[1,2-e][1,4]diazepin-5-yl)phenyl]nicotinamide dihydrochloride]
cough response increased due to airway inflammation ([2]; as stated in Example 15, oral 30 mg/kg): completely inhibit | number of coughs, pre versus post administration ([2]; oral 30 mg/kg 1 h before 0.5 M citric acid stimulation): significantly decreased

COc1ccc2c3c1O[C@H]1[C@@H](O)CC[C@H]4[C@@H](C2)N(C)CC[C@@]341 [dihydrocodeine, reference compound]
cough inhibition rate, compound A versus the same dose of dihydrocodeine [3]: comparable

TNP-ATP
number of coughs induced by citric acid and increased depending on the concentration of ATP ([1]; Non Patent Literature 2): decreased | inhibition of the ATP-elicited increase of citric acid-induced cough ([1]; guinea pigs, inhalation pretreatment / aerosol, Non Patent Literature 1): completely inhibited

— patent publication US12233071B2, “Medicament for treating cough” (NIPPON CHEMIPHAR CO., LTD, priority 2018, dated 2025)
